In patent US20250270227A1, “CAMPTOTHECIN DERIVATIVE, AND PHARMACEUTICAL COMPOSITION AND USE THEREOF” (SIMCERE ZAIMING PHARMACEUTICAL CO., LTD., priority 2021, published 2025):
Like-named read-outs stand apart in the source and are kept apart here.

How the values were obtained:
[1] = Plasma protein binding rate (equilibrium dialysis); assay type: in vitro ADME, mouse; conditions: pH 7.4
Experimental: The protein binding rates of the compounds of the present disclosure in human and mouse plasma were determined by the following experimental method.
• 1. Human plasma (BioIVT), CD-1 mouse plasma (BiolVT) • 2. Na2HPO4 (Sigma S5136-500G) • 3. NaH2PO4 (Sigma 53139-500G) • 4. NaCl (Sigma S5886-IKG) • 5. 96-well equilibrium dialysis plate (HTDialysis LLC, Gales Ferry, CT, HTD96B) and equilibrium dialysis membrane (MWCO 12-14K, 1101) • 6. Positive control compound warfarin • 7. ABI QTrap 5500 liquid chromatography-mass spectrometry
• 1. Preparation of a buffer with a concentration of 100 mM sodium phosphate and 150 mM NaCl: An alkaline solution with a concentration of 14.2 g/L Na2HPO4 and 8.77 g/L NaCl was prepared with ultrapure water, and an acidic solution with a concentration of 12.0 g/L NaH2PO4 and 8.77 g/L NaCl was prepared with ultrapure water. Then the alkaline solution was titrated to pH 7.4 with the acidic solution to prepare a buffer with a concentration of 100 mM sodium phosphate and 150 mM NaCl. • 2. Preparation of dialysis membrane: The dialysis membrane was soaked in ultrapure water for 60 min to separate the membrane into two pieces, then soaked in 20% ethanol for 20 min, and finally soaked in a buffer used for dialysis for 20 min. • 3. Preparation of plasma: The frozen plasma was quickly thawed at room temperature, and then centrifuged at 3220 g for 10 min at 4° C. to remove clots, and the supernatant was collected into a new centrifugal tube. The pH of the plasma was determined and recorded, and the plasma with pH of 7-8 was used. • 4. Preparation of compound-containing plasma samples: The 10 mM stock solution of the compound of the present invention or the positive control compound was diluted with DMSO to obtain a 200 μM working solution. To 597 μl of human or mouse plasma was added 3 μl of 200 μM compound working solution to obtain a plasma sample with a final concentration of 1 μM. • 5. […]
The peak areas of the compound on the buffer side and the plasma side were determined. […]

[2] = Metabolic stability in liver microsomes; assay type: in vitro ADME, mouse; conditions: for half-life at 1 μM: CD-1, mouse, microsomes
Experimental: The metabolic stability of the compounds of the present disclosure in liver microsomes was determined by the following experimental method.
• 1. Human liver microsomes (Corning 452117), Beagle dog liver microsomes (XENOTECH D1000), SD rat liver microsomes (XENOTECH R1000) and CD-1 mouse liver microsomes (XENOTECH M1000) • 2. Na2HPO4 (Tianjin Guangfu Fine Chemical Research Institute 20180130) • 3. KH2PO4 (Tianjin Guangfu Fine Chemical Research Institute 20180920) • 4. MgCl2 (Tianjin Guangfu Fine Chemical Research Institute 20191216) • 5. NADPH (Solarbio 1216C022) • 6. Positive control compound verapamil (Sigma MKBV4993V) • 7. AB Sciex API4000 liquid chromatography-mass spectrometry
• 1. Preparation of 100 mM phosphate buffered saline (PBS): 7.098 g of Na2HPO4 was weighed, 500 mL of pure water was added and subjected to ultrasonic dissolution to obtain solution A. 3.400 g of KH2PO4 was weighed, 250 mL of pure water was added and subjected to ultrasonic dissolution to obtain solution B. Solution A was placed on a stirrer and solution B was slowly added until the pH value reached 7.4 to prepare 100 mM PBS buffer. • 2. Preparation of reaction system
The reaction system was prepared according to the following table:
• 3. The reaction system was placed in a 37° C. water bath and pre-incubated for 10 min. 40 μL of 10 mM NADPH solution (NADPH was dissolved in 100 mM phosphate buffer) was added to the reaction system with the final concentration of NADPH being 1 mM. 40 μL of phosphate buffer was used instead of NADPH solution as negative control. The role of the negative control was to exclude the effect of the chemical stability of the compounds themselves. • 4. 4 μL of 100 μM compound of the present disclosure and the positive control compound verapamil were added to the reaction system to initiate the reaction, with the final concentration of the compound being 1 μM. • 5. After thorough mixing on a vortex oscillator, 50 μL of the incubated sample was taken out at 0.5 min, 15 min, 30 min, 45 min and 60 min, respectively, and the reaction was stopped with 200 μL of glacial acetonitrile containing internal standard. The sample was centrifuged at 3220 g for 45 min. […]
All the data was calculated by the Microsoft Excel software. The peak area was detected by extracting the ion chromatogram. The in vitro half-life (t1/2) of the compound was determined by performing linear fitting of the natural logarithm of elimination percent of the compound and time.
The in vitro half-life (t1/2) was calculated by means of the slope k: […]
The in vitro intrinsic clearance (unit: μL/min/mg protein) was calculated using the following equation: […]

[3] = CD-1 mouse plasma, 1 μM, equilibrium dialysis 6 h, 37° C., read-out: % Mouse plasma protein binding rate (converted)
[4] = pH 7.4, mouse liver microsomes 0.5 mg/mL, 1 μM compound, 1 mM NADPH, 37° C., read-out: Stability in mouse liver microsomes t1/2

Row | SMILES | fraction unbound at 6 h, 1 μM [1, 3] | half-life at 1 μM [2, 4] | Stability in mouse liver microsomes t1/2 ([2]; mouse liver microsomes 0.5 mg/mL, 1 μM compound, 1 mM NADPH, 37° C.) | fraction unbound at 6 h, 1 μM ([1]; CD-1, mouse, plasma) | half-life at 1 μM ([2]; pH 7.4)
1 | CC[C@@]1(O)C(=O)OCc2c1cc1n(c2=O)Cc2c-1nc1cc3c(cc1c2CNC(=O)C(O)C1CC1)OCO3 (single isomer, unassigned) [Compound 14-P1] | 0.363 | 1.21 h |  |  | 
2 | CC[C@@]1(O)C(=O)OCc2c1cc1n(c2=O)Cc2c-1nc1cc3c(cc1c2CNC(=O)C(O)C1CC1)OCO3 (single isomer, unassigned) [Compound 14-P2] |  |  | 1.08 h |  | 
3 | CC[C@@]1(O)C(=O)OCc2c1cc1n(c2=O)Cc2c-1nc1cc3c(c(F)c1c2CNC(=O)[C@@H](O)C1CC1)OCO3 (single isomer, unassigned) [Compound 37-P1] |  |  |  | 0.327 | 2.23 h
4 | [2H]C1([2H])Oc2cc3nc4c(c(CNC(=O)C(O)C5CC5)c3cc2O1)Cn1c-4cc2c(c1=O)COC(=O)[C@]2(O)CC (stereo partly drawn) [Compound 39, 2-cyclopropyl-N-(((S)-7-ethyl-7-hydroxy-8,11-dioxo-7,8,11,13-tetrahydro-10H-[1,3]dioxolo[4,5-g]pyrano[3′,4′:6,7]indolizino[1,2-b]quinolin-14-yl-2,2-d2)methyl)-2-hydroxyacetamide] | 0.342 | 4.47 h |  |  | 
